Laboratory results as given in PMC8472139, “Neuroprotective Effect of a Novel ATP-Synthase Inhibitor Bedaquiline in Cerebral Ischemia-Reperfusion Injury” (International Journal of Molecular Sciences, 2021).

Target: T1, F1F0-ATP synthase (ATPase, complex V) (Rattus norvegicus, UniProt P05504+Q06645)
T1 construct: gene Atp5mc1; native complex from brain mitochondria (male Wistar rat), immunocaptured in microplate wells (Abcam ab109714 kit); mature c subunit is identical from Atp5mc1/Atp5mc2/Atp5mc3; with ATP synthase F(1) complex subunit alpha, mitochondrial; ATP synthase F(1) complex catalytic subunit beta, mitochondrial; ATP synthase F(1) complex subunit gamma, mitochondrial; ATP synthase F(1) complex subunit delta, mitochondrial; ATP synthase F(1) complex subunit epsilon, mitochondrial; ATP synthase peripheral stalk subunit OSCP, mitochondrial; ATP synthase peripheral stalk-membrane subunit b, mitochondrial
Test: ATP hydrolysis coupled to NADH oxidation, absorbance […] nm, immunocapture kit
Assay type: biochemical

- inhibition at 5 µM: ~50%
Structure (SMILES): COc1nc2ccc(Br)cc2cc1[C@@H](c1ccccc1)[C@@](O)(CCN(C)C)c1cccc2ccccc12 [BDQ, Bedaquiline]
